This is an account of results in patent US6903086B2, “Alkoxycarbonylamino benzoic acid or alkoxycarbonylamino tetrazolyl phenyl derivatives as IP antagonists” (SYNTEX (U.S.A.) LLC, priority 2001, dated 2005).

What is called melting point is the temperature of the solid-liquid transition. The compound `O=C(Nc1ccc(-c2ccccc2)cc1C(=O)O)OCc1cc2cc(-c3ccccc3)ccc2o1` [compound 10, 4-(5-phenyl-benzofuran-2-ylmethoxycarbonylamino)-biphenyl-3-carboxylic acid] gave a melting point of 225.9 to 226.2 °C.

On to `O=C(Nc1cc(-c2ccccc2)ccc1C(=O)O)OCc1cc2cc(-c3ccccc3)ccc2o1` [compound 11, 3-(5-phenyl-benzofuran-2-ylmethoxycarbonylamino)-biphenyl-4-carboxylic acid], for which the melting point was in the range of 229.5 to 230 °C.

In turn, `O=C(Nc1ccc(-c2ccc(F)cc2)cc1C(=O)O)OCc1cc2cc(-c3ccccc3)ccc2o1` [compound 12, 4′-fluoro-4-(5-phenyl-benzofuran-2-ylmethoxycarbonylamino)-biphenyl-3-carboxylic acid] yielded a melting point of 229.4 to 229.6 °C.

Take `O=C(Nc1ccc(-c2ccsc2)cc1C(=O)O)OCc1cc2cc(-c3ccccc3)ccc2o1` [compound 13, 2-(5-phenyl-benzofuran-2-ylmethoxycarbonylamino)-5-thiophen-3-yl-benzoic acid]: the melting point fell in the range of 229.5 to 230 °C. On to `O=C(Nc1ccc(-c2ccc(F)cc2)cc1C(=O)O)OCc1cc2cc(-c3ccc(F)cc3)ccc2o1` [compound 14, 4′-fluoro-4-[5-(4-fluoro-phenyl)-benzofuran-2-ylmethoxycarbonylamino]-biphenyl-3-carboxylic acid], for which the melting point fell in the range of 235.1 to 235.7 °C. Compound `O=C(Nc1ccc(-c2ccccc2)cc1C(=O)O)OCc1cc2cc(-c3ccc(F)cc3)ccc2o1` [compound 15, 4-[5-(4-fluoro-phenyl)-benzofuran-2-ylmethoxycarbonylamino]-biphenyl-3-carboxylic acid] returned a melting point of 231.3 to 231.6 °C. For the compound `O=C(Nc1ccc(-c2cccnc2)cc1C(=O)O)OCc1cc2cc(-c3ccc(F)cc3)ccc2o1` [compound 16, 2-[5-(4-fluoro-phenyl)-benzofuran-2-ylmethoxycarbonylamino]-5-pyridin-3-yl-benzoic acid], the melting point lay within 225.7 to 229.3 °C. The figure for `O=C(Nc1ccccc1C(=O)O)OCc1cc2cc(-c3ccccc3)ccc2o1` [compound 17, 2-(5-phenyl-benzofuran-2-ylmethoxycarbonylamino)-benzoic acid] is 203.6 to 203.8 °C; for `O=C(Nc1cc2ccccc2cc1C(=O)O)OCc1cc2cc(-c3ccccc3)ccc2o1` [compound 18, 3-(5-phenyl-benzofuran-2-ylmethoxycarbonylamino)-naphthalene-2-carboxylic acid] it is 225.6 to 225.8 °C. The figure for `O=C(Nc1ccc(Br)cc1C(=O)O)OCc1cc2cc(-c3ccccc3)ccc2o1` [compound 19, 5-bromo-2-(5-phenyl-benzofuran-2-ylmethoxycarbonylamino)-benzoic acid] is 221.2 to 222 °C; for `CS(=O)(=O)c1ccc(NC(=O)OCc2cc3cc(-c4ccccc4)ccc3o2)c(C(=O)O)c1` [compound 20, 5-methanesulfonyl-2-(5-phenyl-benzofuran-2-ylmethoxycarbonylamino)-benzoic acid] it is 234 to 235 °C.

As for `N#Cc1ccc(NC(=O)OCc2cc3cc(-c4ccccc4)ccc3o2)c(C(=O)O)c1` [compound 21, 5-cyano-2-(5-phenyl-benzofuran-2-ylmethoxycarbonylamino)-benzoic acid], the melting point was in the range of 213.9 to 214.5 °C. The compound `O=C(Nc1c(Cl)cc(Cl)cc1C(=O)O)OCc1cc2cc(-c3ccc(F)cc3)ccc2o1` [compound 22, 3,5-dichloro-2-[5-(4-fluoro-phenyl)-benzofuran-2-ylmethoxycarbonylamino]-benzoic acid] returned a melting point of 177.7 to 178.5 °C. `O=C(Nc1ccc(F)cc1C(=O)O)OCc1cc2cc(-c3ccc(F)cc3)ccc2o1` [compound 23, 5-fluoro-2-[5-(4-fluoro-phenyl)-benzofuran-2-ylmethoxycarbonylamino]-benzoic acid] gave a melting point of 210 to 211.9 °C.
